In US4371544A, “Pharmaceutical composition containing 1,1,3,5-substituted biuret compound” (Taiho Pharmaceutical Company Limited, priority 1979, dated 1983):
Like-named read-outs stand apart in the source and are kept apart here.

Experiments:
[1] = Acute toxicity (oral, mice, 7 days observation); type: in vivo; conditions: mouse, in vivo
Description: (§1) Next, several tests for determining the pharmacological properties, in that acute toxicity, anti-pyretic activity, analgesic activity and anti-inflammatory activity of the present 1,1,3,5-substituted biuret compounds of the formula (1) were conducted and the test results are shown in Table (2). In the tests, each compounds to be tested was used as a suspension in 0.25% carboxymethylcellulose solution. Methods for testing are explained as follows:
(§2) The ddy strain of male mice (body weight, 20-25 g) were used as test animals. The mice were fasted overnight and the compound to be tested was administered orally. […] The lethal dose (mg/kg, body weight) of the test compound was determined in connection with the death number of mice/the number of mice tested. In Table 2, the values indicated with Δ marks are 50% lethal dose, LD50 (mg/kg, body weight).

[2] = test system: Wistar strain of male rats; test: Anti-inflammatory activity (acute carrageenin-induced inflammatory test, hindpaw); type: in vivo, rat (Wistar)
Description: as §1
According to the method of acute carrageenin-induced inflammatory test [Folia Pharmacologia Japonica, Vol. 56, pp. 575 (1960)], the Wistar strain of male rats (body weight, 150-180 g) were used as test animals. The rats were fasted overnight, 100 mg/kg body weight of the test compound was administered orally, then 1 hour after the administration, 0.1 ml of 1% carrageenin solution, as the inflammation inducing agent, was injected subcutaneously to the hindpaw of the rat and the volume of the hindpaw was measured at time sequences, Anti-inflammatory activity of the test compound was calculated as inflammation inhibitory ratio (%) at 3 hours after the injection of inflammation inducing agent.

ddy strain of male mice [3] = test: Analgesic activity, acetic acid-induced stretching method; type: in vivo, mouse (ddy); conditions: for ED50: oral, Δ mark, range in parentheses
Description: as §1
According to the method reported by Koster et al., [Fed. Proc., Vol. 18, pp. 412 (1959)], the ddy strain of male mice (body weight, 20-25 g) were used as test animals. The mice were fasted overnight, 100 mg/kg body weight of the test compound was administered orally, then 1 hour after the administration, 0.2 ml of 0.7% acetic acid solution was injected intraperitoneally. The acetic acid-induced stretching symptom of mouse was observed. Analgesic activity of the test compound was calculated as the inhibitory ratio (%). In Table 2, the values in parentheses show the data obtained from the test by using the dosage other than 100 mg/kg body weight. Further, the values indicated with Δ marks show 50% effective dose, ED50 (mg/kg body weight).

[4] = test system: Wistar strain of male rats; test: Anti-pyretic activity (dry-yeast-induced fever); type: in vivo, rat (Wistar); conditions: oral (dose not given), up to 4 hours after administration
Description: as §1
According to the method reported by Tanabe [Folia Pharmacologia Japonica, Vol. 73, pp. 803 (1977)], the Wistar strain of male rats (150-180 g, body weight) were used as test animals. The rats were fasted overnight, and 1 ml/100 g (body weight) of 10% dry-yeast suspension were subcutaneously injected on the back of the rats. Five hours after the injection, the test compound was administered orally, then the body temperature of the rat was measured at time sequences. Anti-pyretic activity of the test compound was determined as the FI (febril index) by integrating pyrogenetic curve up to 4 hours after the administration of the test compound with time, and indicated as inhibitory ratio (%) shown by the following formula, [formula]

ddy strain of male mice [5] = test: Analgesic activity, Haffner method (morphine threshold dose, clamp); type: in vivo, mouse (ddy); conditions: for ED50: oral, Δ mark, range in parentheses; for inhibition in vivo at 200 mg/kg: 200 mg/kg oral; for Analgesic activity, Haffner method, inhibitory ratio / inhibition in vivo at 100 mg/kg: 100 mg/kg oral, 45 minutes before morphine hydrochloride
Description: as §1
According to the modified method reported by Fujimura et. al., [Bulletin of the Institute for Chemical Research, Kyoto University, No. 25, pp. 36 (1951)], the ddy strain of male mice (body weight, 20-25 g) were used as test animals. The mice were fasted overnight, 100 mg/kg body weight of the test compound was administered orally, then 45 minutes after the administration, the threshold amount (1.5-2.5 mg/kg body weight) of morphine hydrochloride was injected subcutaneously. Then 1-hour pain reaction of the mouse caused by a clamp was observed. Analgesic activity of the test compound was calculated as the inhibitory ratio (%). In Table 2, the values in parentheses show the data obtained from the test by using the dosage other than 100 mg/kg body weight. Further, the values indicated with Δ marks show 50% effective dose, ED50 (mg/kg body weight).

ddy strain of male mice [6] = test: Acute toxicity (oral, mice, 7 days observation); type: in vivo
Description: as §1, §2

[7] = oral, male ddy mice, 7 days observation, Δ mark, read-out: 50% lethal dose, LD50
[8] = Rattus norvegicus, po, 3 h, read-out: Anti-inflammatory activity, inflammation inhibitory ratio
[9] = Rattus norvegicus, 100 mg/kg oral, 3 hours after carrageenin, read-out: Anti-inflammatory activity, inflammation inhibitory ratio
[10] = Mus musculus, po, read-out: Analgesic activity, acetic acid-induced stretching method, inhibitory ratio
[11] = Mus musculus, read-out: Analgesic activity, Haffner method, inhibitory ratio
[12] = 100 mg/kg oral, 3 hours after carrageenin
[13] = 100 mg/kg oral, 1 hour before acetic acid

| SMILES | inhibition in vivo at 100 mg/kg [2, 8] [%] | Anti-pyretic activity, inhibitory ratio (febril index) [4] [%] | Acute toxicity: death number of mice/number of mice tested (ddy strain of male mice [6]; 1000 mg/kg oral) | Acute toxicity: death number of mice/number of mice tested (ddy strain of male mice [6]; 2000 mg/kg oral) | inhibition in vivo at 100 mg/kg (ddy strain of male mice [3]; [10]) [%] | inhibition in vivo at 100 mg/kg (ddy strain of male mice [5]; [11]) [%] | other results |
| --- | --- | --- | --- | --- | --- | --- | --- |
| CNC(=O)NC(=O)N(C)c1ccccc1 [Compound No. 49, 1,5-dimethyl-1-phenylbiuret] | 32 | 84 | – | – | – | – | LD50 at 168 h [1, 7]: 1600 mg/kg; ED50 (ddy strain of male mice [3]; Mus musculus): 34 mg/kg; ED50 (ddy strain of male mice [5]; Mus musculus): 86 mg/kg |
| CCCNC(=O)N(C)C(=O)N(C)c1ccccc1 [Compound No. 55, 1,3-Dimethyl-1-phenyl-5-n-propylbiuret] | – | 80 | 1/4 | – | – | – | Acute toxicity: death number of mice/number of mice tested (ddy strain of male mice [6]; 1500 mg/kg oral): 4/4; inhibition in vivo at 100 mg/kg [2, 9]: 73%; ED50 (ddy strain of male mice [3]; Mus musculus): 80 mg/kg; ED50 (ddy strain of male mice [5]; Mus musculus): 90 mg/kg |
| CCN(CC)C(=O)N(C)C(=O)Nc1ccccc1 [Compound No. 57, 1,1-diethyl-3-methyl-5-phenylbiuret] | 23 | 19 | – | 1/4 | 37.5 | – | inhibition in vivo at 200 mg/kg (ddy strain of male mice [5]; [11]): 50% |
| CN(C)C(=O)N(C)C(=O)Nc1c(F)c(F)cc(F)c1F [compound 9, 1,1,3-Trimethyl-5-(2,3,5,6-tetrafluorophenyl)biuret] | – | 33 | 4/4 | – | – | – | Acute toxicity: death number of mice/number of mice tested (ddy strain of male mice [6]; 500 mg/kg oral): 0/4; Anti-inflammatory activity, inflammation inhibitory ratio [2, 12]: 24%; Analgesic activity, acetic acid-induced stretching method, inhibitory ratio (ddy strain of male mice [3]; [13]): 87.5%; Analgesic activity, Haffner method, inhibitory ratio (ddy strain of male mice [5]): 50% |
| CN(C)C(=O)N(C)C(=O)Nc1cccc(C(F)(F)F)c1 [compound 18, 1,1,3-Trimethyl-5-(3-trifluoromethylphenyl)biuret] | – | 62 | 0/4 | 4/4 | – | – | Anti-inflammatory activity, inflammation inhibitory ratio ([2]; 100 mg/kg oral, (2 hours)): 32%; Analgesic activity, acetic acid-induced stretching method, inhibitory ratio (ddy strain of male mice [3]; [13]): 37.5%; ED50 (ddy strain of male mice [5]; Mus musculus): 64 mg/kg |
| Cc1cccc(NC(=O)N(C)C(=O)N(C)C)c1 [compound 27, 1,1,3-Trimethyl-5-(3-methylphenyl)biuret] | – | 31 | – | 2/4 | – | – | Anti-inflammatory activity, inflammation inhibitory ratio [2, 12]: 28%; Analgesic activity, acetic acid-induced stretching method, inhibitory ratio (ddy strain of male mice [3]; [13]): 75%; Analgesic activity, Haffner method, inhibitory ratio (ddy strain of male mice [5]): 37.5% |
| CCN(C(=O)Nc1ccccc1)C(=O)N(C)C [compound 36, 1,1-Dimethyl-3-ethyl-5-phenylbiuret] | – | 12 | 0/4 | 3/4 | – | 62.5 | Anti-inflammatory activity, inflammation inhibitory ratio [2, 12]: 23%; Analgesic activity, acetic acid-induced stretching method, inhibitory ratio (ddy strain of male mice [3]; [13]): 62.5% |
| CCCCN(C(=O)Nc1ccccc1)C(=O)N(C)C [compound 38, 1,1-Dimethyl-3-n-butyl-5-phenylbiuret] | – | 18 | 0/4 | 3/4 | – | – | inhibition in vivo at 100 mg/kg [2, 9]: 31%; Analgesic activity, acetic acid-induced stretching method, inhibitory ratio (ddy strain of male mice [3]; [13]): 37.5%; inhibition in vivo at 200 mg/kg (ddy strain of male mice [5]; [11]): 37.5% |
| CNC(=O)N(C(=O)N(C)C)c1ccccc1 [compound 39, 1,1,5-Trimethyl-3-phenylbiuret] | – | – | – | – | – | – | LD50 at 168 h [1, 7]: 93 mg/kg; inhibition in vivo at 25 mg/kg [2, 8]: 33%; inhibition in vivo at 50 mg/kg (ddy strain of male mice [3]; [10]): 25%; inhibition in vivo at 50 mg/kg (ddy strain of male mice [5]; Mus musculus, 50 mg/kg oral, read-out: Analgesic activity, Haffner method, inhibitory ratio): 25% |
| CN(C)C(=O)N(C(=O)NC1CCCCC1)c1ccccc1 [compound 41, 1,1-Dimethyl-3-phenyl-5-cyclohexylbiuret] | – | – | – | – | – | 62.5 | LD50 at 168 h [1, 7]: 1280 mg/kg; inhibition in vivo at 200 mg/kg (ddy strain of male mice [3]; [10]): 50% |
| CCN(C)C(=O)NC(=O)NCc1ccccc1 [compound 44, 1-Methyl-1-ethyl-5-benzylbiuret] | 47 | – | – | – | – | – | LD50 at 168 h [1, 7]: 1400 mg/kg; inhibition in vivo at 200 mg/kg (ddy strain of male mice [3]; Mus musculus, 200 mg/kg oral, read-out: Analgesic activity, acetic acid-induced stretching method, inhibitory ratio): 87.5% |
| CCCN(C)C(=O)N(C)C(=O)Nc1ccccc1 [compound 46, 1,3-Dimethyl-1-n-propyl-5-phenylbiuret] | – | 44 | 1/4 | 4/4 | – | – | Anti-inflammatory activity, inflammation inhibitory ratio ([2]; 100 mg/kg oral, (2 hours)): 26%; Analgesic activity, acetic acid-induced stretching method, inhibitory ratio (ddy strain of male mice [3]; 60 mg/kg oral): 75%; Analgesic activity, Haffner method, inhibitory ratio (ddy strain of male mice [5]): 37.5% |
| CCCNC(=O)NC(=O)N(C)c1ccccc1 [compound 51, 1-Methyl-1-phenyl-5-n-propylbiuret] | 60 | 164 | 2/4 | – | 37.5 | 87.5 | Acute toxicity: death number of mice/number of mice tested (ddy strain of male mice [6]; 500 mg/kg oral): 1/4 |
| CCCCNC(=O)NC(=O)N(C)c1ccccc1 [compound 52, 1-Methyl-1-phenyl-5-n-butylbiuret] | – | 104 | 0/4 | 3/4 | – | 50 | inhibition in vivo at 100 mg/kg [2, 9]: 48%; inhibition in vivo at 100 mg/kg (ddy strain of male mice [3]; Mus musculus, 100 mg/kg oral, 1 hour before acetic acid, read-out: Analgesic activity, acetic acid-induced stretching method, inhibitory ratio): 62.5% |
| CCN(C(=O)N(C)C(=O)NC)c1ccc(Cl)cc1 [compound 60, 1-Ethyl-1-(4-chlorophenyl)-3,5-dimethylbiuret] | 33 | 88 | 1/4 | 3/4 | 75 | 50 | – |
| CCN(C(=O)N(C)C(=O)NC)c1ccc(C)cc1 [compound 62] | – | 18 | – | – | 62.5 | 37.5 | LD50 at 168 h ([1]; po): 1480 mg/kg |
| CCCN(C(=O)N(C)C(=O)NC)c1ccccc1 [compound 63, 1-n-Propyl-1-phenyl-3,5-dimethylbiuret] | – | 76 | 3/4 | 4/4 | 50 | 50 | inhibition in vivo at 100 mg/kg [2, 9]: 58% |
| CCCCN(C(=O)N(C)C(=O)NC)c1ccccc1 [compound 64, 1-n-Butyl-1-phenyl-3,5-dimethylbiuret] | 43 | 50 | 2/4 | – | 25 | 37.5 | Acute toxicity: death number of mice/number of mice tested (ddy strain of male mice [6]; 500 mg/kg oral): 1/4 |
| CN(C(=O)Nc1ccccc1)C(=O)N1CCCCC1 [compound 70, 1,1-Pentamethylene-3-methyl-5-phenylbiuret] | – | – | – | – | 62.5 | 37.5 | LD50 at 168 h [1, 7]: 515 mg/kg |
